Experiments:
[1] = test system: 3-deoxy-D-arabino-heptulosonate 7-phosphate synthase; test: feedback inhibition of chloroplast DAHP synthase; assay type: biochemical, higher plants; conditions: higher-plant chloroplasts
From the text: Because L-arogenate regulates aromatic amino acid biosynthesis in the chloroplast by feedback inhibition exerted upon the initial enzyme of aromatic biosynthesis, it provides an excellent point of attack. Application of L-arogenate or an L-arogenate-type compound will cause a serious disturbance of the feedback inhibition mechanism of this crucial metabolic pathway.

[2] = test system: DAHP synthase isozymes of higher plants; test: inhibition of DAHP synthase isozymes of higher plants; assay type: biochemical; conditions: two separately compartmented isozymes
From the text: The early amino acid pathway circuit entails the feedback inhibition of 3-deoxy-D-arabinoheptulosonate 7-P (DAHP) synthase by chorismate. Thus, the DAHP synthase of Xanthomonas offers unique target of vulnerability in nature since an appropriate analog mimic of chorismate produces false feedback inhibition of DAHP synthase in Xanthomonas but not in the higher plant host. […] Step two of the claimed process has thus been completed.
The DAHP synthase of xanthomonads is also sensitive to inhibition by L-tryptophan. […] Thus, analog mimics of L-tryptophan attack a second site within the basic DAHP synthase target of Xanthomonas.

[3] = test system: a variety of bacteria, including N. gonorrhoeae; test: energy drain / PEP depletion in bacteria after EPSP synthase block; assay type: cell-based
From the text: The enzymic target of N-(phosphonomethyl) glycine action is not present in mammalian systems, therefore, N-(phosphonomethyl) glycine is not toxic to the human host. Because N-(phosphonomethyl) glycine acts on an enzyme which is present in pathogenic bacteria but not in the human host, this compound could be used as an effective control agent for bacterial pathogens.

arogenate dehydrogenase = test: substrate utilization by arogenate dehydrogenase enzymes; assay type: biochemical
From the text: (§1) Therefore, prephenyllactate is an appropriate prephenate analog for the control of phytopathogens.

[4] = test system: cyclohexadienyl dehydrogenase; test: substrate utilization by cyclohexadienyl dehydrogenase; assay type: biochemical
From the text: as §1

[5] = test system: microbial prephenate dehydrogenase; test: substrate utilization by microbial prephenate dehydrogenase; assay type: biochemical
From the text: as §1

Q: For `N[C@@H](CC1(C(=O)O)C=CC(O)C=C1)C(=O)O` (stereo partly drawn) [L-arogenate], which “feedback inhibition of the initial enzyme of aromatic biosynthesis” value [1] is on record?
A: feedback inhibitor

Q: For `N[C@@H](Cc1c[nH]c2ccccc12)C(=O)O` [L-tryptophan], which “sensitivity of higher-plant DAHP synthase isozymes to inhibition” value [2] is on record?
A: not affected

Q: What does the source list for `O=C(O)CNCP(=O)(O)O` [N-(phosphonomethyl) glycine]?
A: drain upon intracellular supplies of PEP ([3]; even at microgram levels, shikimate-3-phosphate accumulates): produces a drain upon intracellular supplies of PEP; energy drain from depletion of PEP and ATP ([3]; variety of bacteria, including N. gonorrhoeae): severe energy drain

Q: `C=C(O[C@@H]1C=C(C(=O)O)C=C[C@H]1O)C(=O)O` [chorismate] was tested. Which “sensitivity of higher-plant DAHP synthase isozymes to inhibition” value [2] did it give?
A: neither sensitive to inhibition

Q: Which “utilization as substrate by arogenate dehydrogenase enzymes” value (arogenate dehydrogenase) does the source give for `O=C(O)C(O)CC1(C(=O)O)C=CC(O)C=C1` (stereo not drawn) [prephenyllactate, β-(1-carboxyl-4-hydroxy-2,5-cyclohexadien-1-yl) lactic acid] here?
A: do not use prephenyllactate as a substrate

Q: What about the “utilization as substrate by cyclohexadienyl dehydrogenase” value [4] of the same compound?
A: as a substrate quite well

Q: What about the “utilization as substrate by microbial prephenate dehydrogenase” value [5] of the same compound?
A: as a substrate quite well
